Data taken from the NIST ThermoML archive (doi:10.1021/je060271a).

Conditions: 343.15 K, Liquid, Vibrating tube method

CCCCCCC(=O)OCC(COC(=O)CCCCCC)(COC(=O)CCCCCC)COC(=O)CCCCCC [pentaerythritol tetraheptanoate]
Conditions | mass density [kg/m3]
2184.4 kPa | 942.3
2195 kPa | 942.3
2206.1 kPa | 942.2
2216.5 kPa | 942.3
2228.9 kPa | 942.4
2239.4 kPa | 942.3
2249.8 kPa | 942.2
2260.8 kPa | 942.3
2273.8 kPa | 942.3
2284.7 kPa | 942.3
2295.3 kPa | 942.4
2308.5 kPa | 942.3
2319.6 kPa | 942.4
2330.5 kPa | 942.4
2344.6 kPa | 942.3
2356.7 kPa | 942.4
2368 kPa | 942.5
2379.5 kPa | 942.3
2390.7 kPa | 942.3
2405 kPa | 942.2
2416.9 kPa | 942.4
2428.7 kPa | 942.4
2442.8 kPa | 942.5
2454.7 kPa | 942.4
2466.9 kPa | 942.5
2481.6 kPa | 942.5
2493.9 kPa | 942.5
2506.3 kPa | 942.7
2518.9 kPa | 942.4
2534.2 kPa | 942.4
2546.7 kPa | 942.6
2559.3 kPa | 942.5
2574.1 kPa | 942.5
2587.4 kPa | 942.5
2600.6 kPa | 942.5
2616.2 kPa | 942.5
2629.4 kPa | 942.6
2642.8 kPa | 942.7
2656.5 kPa | 942.6
2672.6 kPa | 942.7
2686.5 kPa | 942.7
2700.9 kPa | 942.7
2714.7 kPa | 942.6
2731.4 kPa | 942.6
2745.6 kPa | 942.6
2759.8 kPa | 942.7
2777 kPa | 942.7
2791.7 kPa | 942.6
2806.1 kPa | 942.7
2823.8 kPa | 942.7
2838.2 kPa | 942.7
2853.3 kPa | 942.7
2871.1 kPa | 942.8
2886.2 kPa | 942.8
2902 kPa | 942.8
2917.3 kPa | 942.9
2935.8 kPa | 942.8
2951.4 kPa | 942.8
2967.4 kPa | 942.8
2986.5 kPa | 942.9
3002.7 kPa | 942.8
3018.9 kPa | 942.9
3038.1 kPa | 942.9
3054.6 kPa | 942.8
3071.2 kPa | 943
3088.2 kPa | 943
3108.3 kPa | 943
3125.5 kPa | 942.9
3142.7 kPa | 943
3163.3 kPa | 942.9
3181 kPa | 943
3198.1 kPa | 943
3219.1 kPa | 943
3237.1 kPa | 943
3254.6 kPa | 943
3276.5 kPa | 943.1
3294.7 kPa | 943.2
3313 kPa | 943.2
3335.1 kPa | 943.2
3354.3 kPa | 943.1
3373.4 kPa | 943.2
3392.3 kPa | 943
3411.7 kPa | 943.3
3435.1 kPa | 943.2
3454.3 kPa | 943.2
3473.9 kPa | 943.2
3497.6 kPa | 943.2
3517.4 kPa | 943.2
3537.3 kPa | 943.3
3561.7 kPa | 943.3
3582.2 kPa | 943.4
3603.3 kPa | 943.2
3625.8 kPa | 943.3
3646.8 kPa | 943.3
3672.1 kPa | 943.3
3693.4 kPa | 943.5
3715.2 kPa | 943.4
3736.7 kPa | 943.4
3763.2 kPa | 943.5
3785.2 kPa | 943.4
3807.8 kPa | 943.5
3834.6 kPa | 943.5
3857.8 kPa | 943.4
3885.7 kPa | 943.5
3909.5 kPa | 943.5
3934.6 kPa | 943.5
3958.1 kPa | 943.7
3981.8 kPa | 943.5
4005.9 kPa | 943.6
4035 kPa | 943.6
4059.1 kPa | 943.7
4088.5 kPa | 943.7
